Data set [1] can be described thus: Forearm controlled application test (FCAT), skin hydration by Corneometer. The format is in vivo, human. The method, then: (§1) Topical compositions were tested on skin samples for their ability to improve or maintain skin hydration and limit transepidermal water loss (TEWL). Measurement of the TEWL, expressed in grams per square meter and per hour, is used for studying the water barrier function of the human skin. The more perfect the skin protective coat, the higher the water content and the lower the TEWL. For each of the tests, a negative control was used, which included treatment with 8% SLS. An untreated skin sample was also tested for comparison. The tests were performed using the forearm controlled application test (FCAT) methodology. The various samples were applied to test sites on a forearm over the course of several days. On each day, up to six applications were made and the change in TEWL and hydration levels were recorded. The hydration levels were measured using a Corneometer® based on capacitance measurement of a dielectric medium. The Corneometer® measures the change in the dielectric constant due to skin surface hydration changing the capacitance of a precision capacitor. The measurement can detect even slight changes in the hydration level.
The change in TEWL and hydration levels represent the change observed for that particular sample compared to a baseline (the transepidermal water content or hydration level prior to treatment). […]

The nature of data set [2]: Forearm controlled application test (FCAT), transepidermal water loss (TEWL). It counts as in vivo, human. The procedure: as §1, with “level. The change in TEWL and hydration levels represent the change observed for that particular sample compared to a baseline (the transepidermal water content or hydration level prior to treatment). […]” for “level.”

For `CCCCCCCCCCCCOS(=O)(=O)[O-].[Na+]` [negative control, SLS], the hydration levels entry in data set [1] (Example 1, FIG. 5, change compared to baseline) is given as “lowest hydration levels”. Also, the “change in hydration levels” value in data set [1] (Example 2, FIG. 8, wet and dry application, 3 and 5 days of treatment) is given as “significant reduction in hydration level”. In addition, the TEWL entry in data set [2] (Example 1, FIG. 6, change compared to baseline) is listed as “highest TEWL”. In addition, the “change in TEWL” value in data set [2] (Example 2, FIG. 7, wet and dry application, 3 and 5 days of treatment) was “significant TEWL”.
